Source: PMC11062899, “De novo development of small cyclic peptides that are orally bioavailable” (Nature Chemical Biology, 2023)
“And” between values parts separate entries of the source, which are not always exact repeats. Equal entries are not always repeated. Where two headings read alike, the source gives them in different places.

Assays:
human α-thrombin = human α-thrombin (Homo sapiens, UniProt P00734); experiment: Protease inhibition, Ki for human α-thrombin (fluorogenic substrate Z-Gly-Gly-Arg-AMC); assay type: biochemical
Procedure, shortened: (§1)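 Inhibition was measured as AMC fluorescence from 50 μM substrate, monitored for 30 min at 25 °C, relative to a peptide-free control. Human and rat enzymes were present at 2 nM and 3 nM final, respectively, in 50 mM Tris-HCl pH 7.4, 150 mM NaCl, 10 mM MgCl2, 1 mM CaCl2. Ki derives from fitted IC50 via Cheng–Prusoff.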

rat α-thrombin = target: T1, rat α-thrombin (Rattus norvegicus, UniProt P18292); experiment: Protease inhibition, Ki for rat α-thrombin (fluorogenic substrate Z-Gly-Gly-Arg-AMC); assay type: biochemical; conditions: for slope normalized to DMSO, rat alpha thrombin inhibition / Rat alpha thrombin inhibition, slope normalized to DMSO: replicates R1-R3
T1 construct: rat α-thrombin (Molecular Innovations) were used at final concentrations of 2 nM and 3 nM; purchased Molecular Innovations
Procedure, shortened: as §1

[1] = Peptide stability in simulated intestinal fluid (SIF); assay type: in vitro ADME, porcine; conditions: pig, simulated gi fluid; 8 h, 37 °C, pH 6.8; read-out: Proteolytic stability: SIF (8 h) % remaining
Procedure, shortened: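 Peptide from a 1 mM DMSO stock was added to fluid pre-warmed at 37 °C. SGF was pH 1.2 NaCl with porcine pepsin (0.32 g per 100 ml), and SIF was pH 6.8 potassium phosphate with porcine pancreatin (1 g per 100 ml). Supernatant peptide was quantified by LC–MS, with residual expressed as T1/T0.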

## O=C1C[C@H]2CCCN2C(=O)[C@H](Cc2ccccc2)NC(=O)[C@@H](NC(=O)c2ccc(Cl)s2)CCC=CCCCCN1 [peptide 43]
Human α-thrombin; purified peptide, mean and s.d. of three measurements, read-out: Ki human α-thrombin
  Ki: 50 ± 6 nM
Human α-thrombin; single replicates R1-R3, read-out: Human alpha thrombin inhibition, IC50
  IC50: 56.4 nM and 74.7 nM and 63.5 nM
Human α-thrombin; single replicates R1-R3, read-out: Human alpha thrombin inhibition, Ki
  Ki: 43.5 nM and 57.6 nM and 48.9 nM
Rat α-thrombin; peptide 1.00E+02 uM
  slope normalized to DMSO, rat alpha thrombin inhibition: 5.4 and 5.2 and 4.3
Rat α-thrombin; peptide 1.19E-05 uM
  slope normalized to DMSO, rat alpha thrombin inhibition: 102.6 and 102.2 and 91.2
Rat α-thrombin; peptide 1.22E-02 uM
  slope normalized to DMSO, rat alpha thrombin inhibition: 54.9 and 61.5 and 61.2
Rat α-thrombin; peptide 1.25E+01 uM
  slope normalized to DMSO, rat alpha thrombin inhibition: 7.2 and 11.2 and 5.0
Rat α-thrombin; peptide 1.53E-03 uM
  slope normalized to DMSO, rat alpha thrombin inhibition: 90.8 and 92.4 and 84.4
Rat α-thrombin; peptide 1.56E+00 uM
  slope normalized to DMSO, rat alpha thrombin inhibition: 8.6 and 7.9 and 7.3
Rat α-thrombin; peptide 1.91E-04 uM
  slope normalized to DMSO, rat alpha thrombin inhibition: 101.3 and 100.0 and 99.0
Rat α-thrombin; peptide 1.95E-01 uM
  slope normalized to DMSO, rat alpha thrombin inhibition: 18.2 and 17.7 and 18.1
Rat α-thrombin; peptide 2.38E-05 uM
  slope normalized to DMSO, rat alpha thrombin inhibition: 104.9 and 102.6 and 101.9
Rat α-thrombin; peptide 2.44E-02 uM
  slope normalized to DMSO, rat alpha thrombin inhibition: 50.2 and 48.9 and 44.8
Rat α-thrombin; peptide 2.50E+01 uM
  slope normalized to DMSO, rat alpha thrombin inhibition: 4.6 and 8.1 and 4.9
Rat α-thrombin; peptide 3.05E-03 uM
  slope normalized to DMSO, rat alpha thrombin inhibition: 90.9 and 88.2 and 90.2
Rat α-thrombin; peptide 3.12E+00 uM
  slope normalized to DMSO, rat alpha thrombin inhibition: 7.5 and 10.1 and 7.1
Rat α-thrombin; peptide 3.81E-04 uM
  slope normalized to DMSO, rat alpha thrombin inhibition: 96.2 and 101.3 and 91.7
Rat α-thrombin; peptide 3.91E-01 uM
  slope normalized to DMSO, rat alpha thrombin inhibition: 12.4 and 9.5 and 6.1
Rat α-thrombin; peptide 4.77E-05 uM
  slope normalized to DMSO, rat alpha thrombin inhibition: 105.1 and 89.9 and 85.4
Rat α-thrombin; peptide 4.88E-02 uM
  slope normalized to DMSO, rat alpha thrombin inhibition: 32.8 and 33.4 and 28.7
Rat α-thrombin; peptide 5.00E+01 uM
  slope normalized to DMSO, rat alpha thrombin inhibition: 3.1 and 5.6 and 0.5
Rat α-thrombin; peptide 6.10E-03 uM
  slope normalized to DMSO, rat alpha thrombin inhibition: 72.5 and 78.4 and 84.7
Rat α-thrombin; peptide 6.25E+00 uM
  slope normalized to DMSO, rat alpha thrombin inhibition: 7.7 and -0.5
Rat α-thrombin; peptide 7.63E-04 uM
  slope normalized to DMSO, rat alpha thrombin inhibition: 95.8 and 97.3 and 89.3
Rat α-thrombin; peptide 7.81E-01 uM
  slope normalized to DMSO, rat alpha thrombin inhibition: 10.1 and 10.3 and 8.9
Rat α-thrombin; peptide 9.54E-05 uM
  slope normalized to DMSO, rat alpha thrombin inhibition: 96.1 and 92.0 and 94.2
Rat α-thrombin; peptide 9.77E-02 uM
  slope normalized to DMSO, rat alpha thrombin inhibition: 27.3 and 26.5 and 22.9
Rat α-thrombin; peptide concentration 1.00E+02 uM
  Rat alpha thrombin inhibition, slope normalized to DMSO: 5.4 and 5.2 and 4.3
Rat α-thrombin; peptide concentration 1.19E-05 uM
  Rat alpha thrombin inhibition, slope normalized to DMSO: 102.6 and 102.2 and 91.2
Rat α-thrombin; peptide concentration 1.22E-02 uM
  Rat alpha thrombin inhibition, slope normalized to DMSO: 54.9 and 61.5 and 61.2
Rat α-thrombin; peptide concentration 1.25E+01 uM
  Rat alpha thrombin inhibition, slope normalized to DMSO: 7.2 and 11.2 and 5.0
Rat α-thrombin; peptide concentration 1.53E-03 uM
  Rat alpha thrombin inhibition, slope normalized to DMSO: 90.8 and 92.4 and 84.4
Rat α-thrombin; peptide concentration 1.56E+00 uM
  Rat alpha thrombin inhibition, slope normalized to DMSO: 8.6 and 7.9 and 7.3
Rat α-thrombin; peptide concentration 1.91E-04 uM
  Rat alpha thrombin inhibition, slope normalized to DMSO: 101.3 and 100.0 and 99.0
Rat α-thrombin; peptide concentration 1.95E-01 uM
  Rat alpha thrombin inhibition, slope normalized to DMSO: 18.2 and 17.7 and 18.1
Rat α-thrombin; peptide concentration 2.38E-05 uM
  Rat alpha thrombin inhibition, slope normalized to DMSO: 104.9 and 102.6 and 101.9
Rat α-thrombin; peptide concentration 2.44E-02 uM
  Rat alpha thrombin inhibition, slope normalized to DMSO: 50.2 and 48.9 and 44.8
Rat α-thrombin; peptide concentration 2.50E+01 uM
  Rat alpha thrombin inhibition, slope normalized to DMSO: 4.6 and 8.1 and 4.9
Rat α-thrombin; peptide concentration 3.05E-03 uM
  Rat alpha thrombin inhibition, slope normalized to DMSO: 90.9 and 88.2 and 90.2
Rat α-thrombin; peptide concentration 3.12E+00 uM
  Rat alpha thrombin inhibition, slope normalized to DMSO: 7.5 and 10.1 and 7.1
Rat α-thrombin; peptide concentration 3.81E-04 uM
  Rat alpha thrombin inhibition, slope normalized to DMSO: 96.2 and 101.3 and 91.7
Rat α-thrombin; peptide concentration 3.91E-01 uM
  Rat alpha thrombin inhibition, slope normalized to DMSO: 12.4 and 9.5 and 6.1
Rat α-thrombin; peptide concentration 4.77E-05 uM
  Rat alpha thrombin inhibition, slope normalized to DMSO: 105.1 and 89.9 and 85.4
Rat α-thrombin; peptide concentration 4.88E-02 uM
  Rat alpha thrombin inhibition, slope normalized to DMSO: 32.8 and 33.4 and 28.7
Rat α-thrombin; peptide concentration 5.00E+01 uM
  Rat alpha thrombin inhibition, slope normalized to DMSO: 3.1 and 5.6 and 0.5
Rat α-thrombin; peptide concentration 6.10E-03 uM
  Rat alpha thrombin inhibition, slope normalized to DMSO: 72.5 and 78.4 and 84.7
Rat α-thrombin; peptide concentration 6.25E+00 uM
  Rat alpha thrombin inhibition, slope normalized to DMSO: 7.7 and -0.5
Rat α-thrombin; peptide concentration 7.63E-04 uM
  Rat alpha thrombin inhibition, slope normalized to DMSO: 95.8 and 97.3 and 89.3
Rat α-thrombin; peptide concentration 7.81E-01 uM
  Rat alpha thrombin inhibition, slope normalized to DMSO: 10.1 and 10.3 and 8.9
Rat α-thrombin; peptide concentration 9.54E-05 uM
  Rat alpha thrombin inhibition, slope normalized to DMSO: 96.1 and 92.0 and 94.2
Rat α-thrombin; peptide concentration 9.77E-02 uM
  Rat alpha thrombin inhibition, slope normalized to DMSO: 27.3 and 26.5 and 22.9
Rat α-thrombin; purified peptide, mean and s.d. of three measurements, read-out: Ki rat α-thrombin
  Ki: 11.1 ± 1.4 nM
Rat α-thrombin; single replicates R1-R3, read-out: Rat alpha thrombin inhibition, IC50
  IC50: 17.1 nM and 20.2 nM and 23.1 nM
Rat α-thrombin; single replicates R1-R3, read-out: Rat alpha thrombin inhibition, Ki
  Ki: 9.46 nM and 11.2 nM and 12.8 nM
[1]
  remaining at 8 h: 91 ± 9%
